Literature values as cited in patent US20100256082A1, “Metallo-hydrolase inhibitors using metal binding moietes in combination with targeting moieties” (Viamet Pharmaceuticals, Inc., priority 2006, published 2010).

How the values were obtained:
[1] = tested on: RDP; settings: read-out: 50% inhibitory concentration; reversible, competitive inhibitor of RDP
[2] = molecular target: PDE3A (Homo sapiens, UniProt Q14432, T844A); settings: T844 to Ala mutant versus PDE3A
PDE3A, sequence (Q14432 whole entry T844A): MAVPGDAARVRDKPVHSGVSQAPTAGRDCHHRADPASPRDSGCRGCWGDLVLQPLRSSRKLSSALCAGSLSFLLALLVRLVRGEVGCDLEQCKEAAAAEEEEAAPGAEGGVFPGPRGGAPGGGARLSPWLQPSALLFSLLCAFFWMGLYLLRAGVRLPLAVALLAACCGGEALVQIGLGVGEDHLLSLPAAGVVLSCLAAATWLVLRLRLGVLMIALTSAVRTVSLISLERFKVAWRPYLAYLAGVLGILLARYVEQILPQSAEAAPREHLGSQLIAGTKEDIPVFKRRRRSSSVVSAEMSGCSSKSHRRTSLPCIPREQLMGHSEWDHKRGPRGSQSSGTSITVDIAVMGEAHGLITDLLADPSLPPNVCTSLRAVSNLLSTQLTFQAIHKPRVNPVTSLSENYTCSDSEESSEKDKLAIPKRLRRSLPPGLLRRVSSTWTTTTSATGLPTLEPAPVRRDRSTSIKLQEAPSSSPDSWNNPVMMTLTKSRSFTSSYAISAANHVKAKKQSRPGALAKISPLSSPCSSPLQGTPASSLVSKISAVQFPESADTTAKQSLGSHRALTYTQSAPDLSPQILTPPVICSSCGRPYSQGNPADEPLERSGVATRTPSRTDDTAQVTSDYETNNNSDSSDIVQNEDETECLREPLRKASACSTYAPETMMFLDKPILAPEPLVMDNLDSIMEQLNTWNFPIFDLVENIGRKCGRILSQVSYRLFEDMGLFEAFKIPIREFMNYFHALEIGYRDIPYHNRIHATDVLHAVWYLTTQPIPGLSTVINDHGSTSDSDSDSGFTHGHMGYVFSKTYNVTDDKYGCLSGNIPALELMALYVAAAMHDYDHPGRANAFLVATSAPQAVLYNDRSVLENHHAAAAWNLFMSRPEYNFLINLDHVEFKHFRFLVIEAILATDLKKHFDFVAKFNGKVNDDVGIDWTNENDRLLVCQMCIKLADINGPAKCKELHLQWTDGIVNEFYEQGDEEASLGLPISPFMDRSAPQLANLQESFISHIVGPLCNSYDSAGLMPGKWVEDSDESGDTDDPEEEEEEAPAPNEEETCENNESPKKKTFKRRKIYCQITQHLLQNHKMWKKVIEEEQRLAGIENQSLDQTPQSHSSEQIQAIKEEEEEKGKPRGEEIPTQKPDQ

effect of mutation of T844 to Ala in PDE3A on the K [2]	Compound	also measured
–	CC1(C)C[C@@H]1C(=O)N/C(=C\CCCCSC[C@H](N)C(=O)O)C(=O)O [Cilastatin]	IC50 [1]: 50.1 mM
no effect	Nc1nc2c(ncn2[C@@H]2O[C@@H]3COP(=O)(O)O[C@H]3[C@H]2O)c(=O)[nH]1 [cGMP]	–
–	O=C1CCc2cc(OCCCCc3nnnn3C3CCCCC3)ccc2N1 [cilostazol]	increase in Ki on mutation of T844 to Ala in PDE3A [2]: 25 fold
no effect	Cc1[nH]c(=O)c(C#N)cc1-c1ccncc1 [milrinone]	–
